Experimental data published in ChEMBL document CHEMBL5150046, “Discovery of a Series of 5-Amide-1H-pyrazole-3-carboxyl Derivatives as Potent P2Y14R Antagonists with Anti-Inflammatory Characters” (J Med Chem, 2022).
≈ marks a conversion by molar mass, not a printed value. Each block holds one molecule with its values, some of them ahead of it.

Assays:
[1] = target: T1, P2Y purinoceptor 14 (Homo sapiens) (UniProt Q15391)
T1 sequence (whole entry): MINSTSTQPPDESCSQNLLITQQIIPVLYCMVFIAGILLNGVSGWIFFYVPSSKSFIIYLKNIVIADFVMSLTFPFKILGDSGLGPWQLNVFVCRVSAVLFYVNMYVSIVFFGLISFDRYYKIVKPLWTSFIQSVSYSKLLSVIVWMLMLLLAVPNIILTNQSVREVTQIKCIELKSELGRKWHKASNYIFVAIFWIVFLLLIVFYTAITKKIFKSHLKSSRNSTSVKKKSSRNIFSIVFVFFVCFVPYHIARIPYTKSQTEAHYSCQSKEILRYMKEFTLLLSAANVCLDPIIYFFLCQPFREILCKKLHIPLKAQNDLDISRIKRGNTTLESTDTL

P2Y purinoceptor 13 = target: T2, P2Y purinoceptor 13 (Homo sapiens, UniProt Q9BPV8); assay: Antagonist activity at human P2Y13R expressed in HEK293 cells assessed as inhibition of 2MeSADP-induced cAMP production preincubated for 0.5 hrs followed by 2MeSADP stimulation by cAMP-glo assay; type: functional, cell-based
T2 sequence (Q9BPV8 whole entry): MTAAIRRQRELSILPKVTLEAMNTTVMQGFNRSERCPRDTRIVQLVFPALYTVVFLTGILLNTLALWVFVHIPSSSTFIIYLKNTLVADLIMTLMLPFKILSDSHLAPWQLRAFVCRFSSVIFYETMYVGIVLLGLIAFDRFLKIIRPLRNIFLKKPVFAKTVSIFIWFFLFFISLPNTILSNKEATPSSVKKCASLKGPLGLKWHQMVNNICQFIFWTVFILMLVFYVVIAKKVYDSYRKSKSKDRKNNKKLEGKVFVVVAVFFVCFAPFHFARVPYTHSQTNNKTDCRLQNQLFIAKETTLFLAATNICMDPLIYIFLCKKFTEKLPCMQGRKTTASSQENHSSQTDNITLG

P2Y purinoceptor 14 = target: T3, P2Y purinoceptor 14 (Homo sapiens, UniProt Q15391); assay: Antagonist activity at P2Y14R (unknown origin) expressed in HEK293 cells assessed as inhibition of forskolin-stimulated cAMP accumulation incubated in presence of IBMX by cAMP-glo assay; type: functional, cell-based
T3 sequence (Q15391 whole entry): T1 sequence (whole entry)

P2Y purinoceptor 6 = P2Y purinoceptor 6 (Homo sapiens, UniProt Q15077)
Sequence of P2Y purinoceptor 6 (Q15077 whole entry): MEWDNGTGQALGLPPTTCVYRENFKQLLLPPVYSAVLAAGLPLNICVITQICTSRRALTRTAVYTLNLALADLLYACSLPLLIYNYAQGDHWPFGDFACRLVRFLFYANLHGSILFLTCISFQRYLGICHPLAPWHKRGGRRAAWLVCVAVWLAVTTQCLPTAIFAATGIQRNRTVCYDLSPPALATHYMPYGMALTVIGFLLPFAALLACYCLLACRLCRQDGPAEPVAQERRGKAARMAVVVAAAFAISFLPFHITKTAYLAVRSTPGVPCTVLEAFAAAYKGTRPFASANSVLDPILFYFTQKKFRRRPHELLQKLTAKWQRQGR

[2] = Aqueous solubility of the compound in PBS at pH 7.4 incubated for 24 hrs by UV-3000 absorption spectrometry analysis; type: physicochemical; conditions: for solubility at 24 h: PBS, pH 7.4
[3] = Aqueous solubility of the compound in simulated gastric fluid without pepsin at pH 1.2 incubated for 24 hrs by UV-3000 absorption spectrometry analysis; type: physicochemical; conditions: for solubility: simulated gi fluid, pH 1.2, 24 h
[4] = Aqueous solubility of the compound in simulated intestinal fluid without trypsin at pH 6.8 incubated for 24 hrs by UV-3000 absorption spectrometry analysis; type: physicochemical; conditions: for solubility: simulated gi fluid, pH 6.8, 24 h
[5] = Aqueous solubility of the compound in double distilled water at pH 7 incubated for 24 hrs by UV-3000 absorption spectrometry analysis; type: physicochemical; conditions: for solubility at 24 h: double distilled water, pH 7
P2Y purinoceptor 12 = P2Y purinoceptor 12 (Homo sapiens, UniProt Q9H244); assay: Antagonist activity at P2Y12R (unknown origin) expressed in CHO cells assessed as inhibition of forskolin-stimulated cAMP accumulation incubated for 15 mins in presence of IBMX by chromatography; type: functional, cell-based
Sequence of P2Y purinoceptor 12 (Q9H244 whole entry): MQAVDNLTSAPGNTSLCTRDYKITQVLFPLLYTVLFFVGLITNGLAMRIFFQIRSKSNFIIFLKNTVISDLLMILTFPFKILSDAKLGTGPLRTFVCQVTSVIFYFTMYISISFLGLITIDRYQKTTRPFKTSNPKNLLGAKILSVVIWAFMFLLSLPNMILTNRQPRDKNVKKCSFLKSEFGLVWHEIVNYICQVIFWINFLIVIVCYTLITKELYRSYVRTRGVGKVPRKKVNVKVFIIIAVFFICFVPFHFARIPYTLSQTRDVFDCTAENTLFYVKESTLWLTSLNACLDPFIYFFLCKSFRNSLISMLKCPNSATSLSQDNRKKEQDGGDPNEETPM

[6] = Metabolic stability in human liver microsomes assessed as half life at 2 ug/ml preincubated for 5 mins followed by NADPH addition and measured upto 45 mins by LC-MS/MS analysis; type: ADME, Microsome; conditions: dose 2 µg/ml, time < 50 min
[7] = (§1) Inhibition of caspase-1 mediated pyroptosis in LPS/ATP induced PMA-differentiated human THP-1 cells assessed as live cells at 10 uM pretreated for 24 hrs followed by LPS addition for 3 hrs and further incubated for 1 hr with ATP by caspase-1/PI staining based flow cytometry analysis (reference value: 43.3%); type: functional; design: scale not given: the % may be the effect or the level left; conditions: time 28 hrs
[8] = as §1, with “dead” for “live”, “22.5%)” for “43.3%)”; type: functional; design: scale not given: the % may be the effect or the level left; conditions: time 28 hrs
[9] = as §1, with “early apoptotic” for “live”, “17.9%)” for “43.3%)”; type: functional; design: scale not given: the % may be the effect or the level left; conditions: time 28 hrs
[10] = Oral bioavailability in Sprague-Dawley rat at 10 mg/kg measured for 24 hrs; type: ADME, organism-based; conditions: in vivo
[11] = as §1, with “late apoptotic” for “live”, “16.3%)” for “43.3%)”; type: functional; design: scale not given: the % may be the effect or the level left; conditions: time 28 hrs
[12] = Clearance in Sprague-Dawley rat at 2.5 mg/kg, iv measured for 24 hrs; type: ADME, organism-based; conditions: in vivo
[13] = Metabolic stability in rat liver microsomes assessed as elimination rate constant at 2 ug/ml preincubated for 5 mins followed by NADPH addition and measured upto 45 mins by LC-MS/MS analysis; type: ADME, Microsome; conditions: dose 2 µg/ml, time < 50 min
[14] = Metabolic stability in human liver microsomes assessed as elimination rate constant at 2 ug/ml preincubated for 5 mins followed by NADPH addition and measured upto 45 mins by LC-MS/MS analysis; type: ADME, Microsome; conditions: dose 2 µg/ml, time < 50 min
[15] = Cmax in Sprague-Dawley rat at 10 mg/kg, po measured for 24 hrs; type: ADME, organism-based; design: time 24 hrs, dose 10 mg/kg, route po; conditions: in vivo
[16] = AUC (0 to infinity) in Sprague-Dawley rat at 10 mg/kg, po measured for 24 hrs; type: ADME, organism-based; design: dose 10 mg/kg, time 24 hrs, route po; conditions: in vivo
[17] = Half life in Sprague-Dawley rat at 2.5 mg/kg, iv measured for 24 hrs; type: ADME, organism-based; conditions: in vivo
[18] = Tmax in Sprague-Dawley rat at 10 mg/kg, po measured for 24 hrs; type: ADME, organism-based; conditions: in vivo
[19] = Clearance in Sprague-Dawley rat at 10 mg/kg, po measured for 24 hrs; type: ADME, organism-based; conditions: in vivo
[20] = AUC (0 to infinity) in Sprague-Dawley rat at 2.5 mg/kg, iv measured for 24 hrs; type: ADME, organism-based; design: time 24 hrs, dose 2.5 mg/kg, route iv; conditions: in vivo
[21] = Half life in Sprague-Dawley rat at 10 mg/kg, po measured for 24 hrs; type: ADME, organism-based; conditions: in vivo
[22] = Metabolic stability in rat liver microsomes assessed as half life at 2 ug/ml preincubated for 5 mins followed by NADPH addition and measured upto 45 mins by LC-MS/MS analysis; type: ADME, Microsome; conditions: dose 2 µg/ml, time < 50 min
[23] = HEK293, filed as antagonist, dose 100.0 nM

Compound: O=C(Nc1cc(C(=O)O)nn1Cc1ccc(F)cc1)c1ccncc1
- inhibition ([1]; HEK293, dose 100.0 nM): 32.5%

Compound: O=C(O)c1cc(NC(=O)c2ccccc2F)n(Cc2ccc(F)cc2)n1
- inhibition ([1]; HEK293, dose 100.0 nM): 20.1%

Compound: CCCSc1nc(N[C@@H]2C[C@H]2c2ccc(F)c(F)c2)c2nnn([C@@H]3C[C@H](OCCO)[C@@H](O)[C@H]3O)c2n1 [TICAGRELOR]
- IC50 (P2Y purinoceptor 13): 1400 nM

Compound: Cc1ccccc1C(=O)Nc1cc(C(=O)O)nn1Cc1ccc(F)cc1
- inhibition ([1]; HEK293, dose 100.0 nM): 28.5%

Compound: S=C=Nc1cccc(NC(=S)NCCCCNC(=S)Nc2cccc(N=C=S)c2)c1
- IC50 (P2Y purinoceptor 6): 39500 nM

Compound: O=C(Nc1cc(C(=O)O)nn1Cc1ccc(F)cc1)c1ccc(C(F)(F)F)cc1
- inhibition ([1]; HEK293, dose 100.0 nM): 31.4%

Compound: Cc1ccc(CCC(=O)Nc2cc(C(=O)O)nn2Cc2ccc(F)cc2)cc1
- inhibition ([1]; HEK293, dose 100.0 nM): 14.4%

Compound: O=C(O)c1cc(-c2ccc(C3CCNCC3)cc2)c2ccc(-c3ccc(C(F)(F)F)cc3)cc2c1 [PPTN]
- IC50 (P2Y purinoceptor 12): > 10000 nM
- half-life at 2 ug/ml [6]: 0.767 h
- solubility at 24 h [2]: < 5 µg/mL
- Activity [7]: 79.8%
- Activity [8]: 11.2%
- solubility at 24 h ([3]; simulated gastric fluid without pepsin, pH 1.2): < 5 µg/mL
- solubility at 24 h ([4]; simulated intestinal fluid without trypsin, pH 6.8): < 5 µg/mL
- Activity [9]: 4.68%
- bioavailability [10]: 5%
- Activity [11]: 4.33%
- solubility at 24 h [5]: < 5 µg/mL

Compound: Cc1ccc(C(=O)Nc2cc(C(=O)O)nn2Cc2ccc(F)cc2)cn1
- inhibition [1, 23]: 53.7%

Other lines, results leading:

- IC50 (P2Y purinoceptor 14): 67 nM
- inhibition [1, 23]: 66.3%
Compound: CC(=O)c1ccc(Cn2nc(C(=O)O)cc2NC(=O)c2ccc(C)cc2)cc1

- inhibition [1, 23]: 68.3%
Compound: CCOC(=O)c1cc(NC(=O)c2ccc(C)cc2)n(Cc2ccc(F)cc2)n1

- inhibition ([1]; HEK293, dose 100.0 nM): 3.05%
Compound: CC(C)(C)c1ccc(C(=O)Nc2cc(C(=O)O)nn2Cc2ccc(F)cc2)cc1

- solubility at 24 h [2]: 878 µg/mL (≈ 2730 µM)
- solubility [3]: 69.1 µg/mL (≈ 215 µM)
- solubility [4]: 471.1 µg/mL (≈ 1470 µM)
- solubility at 24 h [5]: 77.6 µg/mL (≈ 241 µM)
Compound: Cc1ccc(C(=O)Nc2cc(C(=O)O)cc(-c3ccoc3)c2)cc1

- inhibition ([1]; HEK293, dose 100.0 nM): 22.4%
Compound: N#Cc1ccc(C(=O)Nc2cc(C(=O)O)nn2Cc2ccc(F)cc2)cc1

- clearance [12]: 16.3 mL/min/kg
- k el at 0.75 h, 2 ug/ml [13]: 6.67e-05 s⁻¹
- k el at 0.75 h, 2 ug/ml [14]: 8.33e-06 s⁻¹
- half-life at 2 ug/ml [6]: 21 h
- Cmax [15]: 1100 ng/mL
- AUC(0-inf) [16]: 4500 ng·h/mL
- half-life [17]: 1.82 h
- solubility ([2]; buffer, pH 7.4, 24 h): 318.7 µg/mL (≈ 902 µM)
- Tmax [18]: 0.25 h
- CL/F [19]: 32.5 mL/min/kg
- AUC(0-inf) [20]: 2600 ng·h/mL
- solubility [3]: 85.1 µg/mL (≈ 241 µM)
- solubility [4]: 202.7 µg/mL (≈ 574 µM)
- half-life [21]: 4.57 h
- half-life at 2 ug/ml [22]: 2.88 h
- bioavailability [10]: 43.2%
- solubility ([5]; buffer, pH 7, 24 h): 88.5 µg/mL (≈ 250 µM)
Compound: Cc1ccc(C(=O)Nc2cc(C(=O)O)nn2Cc2ccc(F)cc2)cc1

- IC50 (P2Y purinoceptor 14): 5.39 nM
- inhibition [1, 23]: 89%
Compound: Cc1ccc(C(=O)Nc2cc(C(=O)O)nn2Cc2cccc(F)c2)cc1
